In patent publication US20250134870A1, “PATHWAY MODULATOR, PHARMACEUTICAL COMPOSITION HAVING SAME, USE THEREOF, AND THERAPEUTIC METHOD USING SAME” (Jiangsu Yahong Meditech Co., Ltd., priority 2021, published 2025):

Columns and labels:
[1] = tested on: dextran sulfate sodium (DSS)-induced colitis; assay: DSS-induced colitis in mice, 3.1% DSS: body weight change and DAI (Example 11); type: in vivo, C57BL/6 mice; conditions: 100 mg/kg, qd
Excerpt: The experimental mice were housed in an SPF grade animal room for three days for adaptation, and randomly divided into 7 groups (6 model groups and 1 control group) of 10 mice in each group. Dosing of mice started on Day 0 and ended on Day 7.
The mouse enteritis model of this Example was established by DSS induction: mice in the model group were provided with a 3.1% DSS (dextran sulfate sodium, molecular weight 36,000-50,000) aqueous solution from Day 0 to Day 7, and the DSS aqueous solution was replaced with freshly prepared solution every day to prevent degradation. Mice in the normal control group were provided with normal water. The experimental period was 9 days, and the mice were euthanized and samples were collected at the experimental endpoint.
The DAI score was assessed daily. The DAI score consisted of 3 parts: body weight change, stool characteristics, and hematochezia (or occult blood) score, and the specific scoring criteria were as shown in Table 49. The DAI scoring of all mice was done by the same staff throughout the experiment.
Mice were euthanized at the experimental endpoint. The colon of mice was dissected, and photograph was taken, the length was measured, and the contents were removed before weighing.
The data were expressed as mean±standard error (X±s). Body weight change and disease activity score were statistically analyzed by two-way ANOVA and comparison between groups were performed by Dunnett's test. Other data were statistically analyzed by one-way ANOVA and comparison between groups were performed by Dunnett's test. All analyses were performed using GraphPad Prism software. * P<0.05, ** P<0.01, *** P<0.005, **** P<0.0001 vs. solvent group.

[2] = tested on: imiquimod (IMQ)-induced psoriasis; assay: Imiquimod (IMQ)-induced psoriasis in mice: erythema, scales, thickness, total score, AUC (Example 8); type: in vivo, Balb/c mice; set-up: key to erythema score / scales score / thickness score: 0 = none, 1 = mild, 2 = moderate, 3 = obvious/severe; key to total score of erythema + scales + thickness: sum of three 0-3 scores (erythema + scales + thickening), 0-9; conditions: for erythema score / scales score: BID × 2 days; for thickness score / total score of erythema + scales + thickness: positive control group
Method: All mice were shaved with a pet shaver to get an area of 2×3 cm on the back one day before the start of the experiment.
65 animals were randomly divided into groups according to body weight, and the dosing regimen was as follows.
Imiquimod (IMQ) cream: 62.5 mg of IMQ cream for each mouse in G2 to G7; Dexamethasone (DEX) ointment: 70 mg of ointment for each mouse in G4;
Tofacitinib: Tofacitinib was dissolved in dimethyl sulfoxide to 5 mg/mL, and 50 μL was added to IMQ cream for daily treatment.
Mice in Groups 2 to 7 received daily topical doses of 62.5 mg of IMQ cream on their shaved back from Day 0 to Day 7.
Dosing of the test compounds and reference substance was carried out according to Table 29 for 7 consecutive days.
To assess the severity of inflammation of skin on the back, the skin on the back was scored according to Table 30. Erythema, scales and thickening were scored independently on a scale of 0 to 3, 0, none; 1. mild; 2. moderate; 3. obvious/severe.
The inhibition rate was calculated according to the following formula: Inhibition rate=[AUC (solvent)−AUC (treatment)]/AUC (solvent)×100%. Wherein, solvent referred to the solvent group corresponding to the route of administration.

[3] = tested on: bleomycin-induced skin fibrosis; assay: Bleomycin-induced skin fibrosis in mice: skin histopathology (dermal thickness, capillary density score, inflammatory cell infiltration score); type: in vivo, male C57BL/6 mice; conditions: 50 mg/kg PO BID, 28 days
Method: The skin tissue of the lesioned skin was subjected to dehydration, embedding and sectioning according to the pathology SOP, and the tissue was stained by HE and Masson staining. Histopathological analysis was performed according to the following methods:
Masson-stained sections were panoramically scanned by using Nanozomer S210 and the scanned images were subjected to quantitative analysis using Visiopharm VIS6.0 software. The degree of fibrosis was currently represented by the dermal thickness after Masson staining.
The fields of observation was selected in the dermis layer of the lesioned area (the number of fields selected was determined according to the size of the lesioned area) and scored according to the area occupied by capillaries in the area: • 0: No capillary formed • 1: The proportion of capillaries formed was less than 25%; • 2: The proportion of capillaries formed was 25-50%; • 3: The proportion of capillaries formed was 50-75%; • 4: The proportion of capillaries formed was greater than 75%. 3.8.3 Inflammatory cell infiltration score of dermis layer
The fields of observation was selected in the dermis layer of the lesioned area (the number of fields selected was determined according to the size of the lesioned area) and scored according to the degree of inflammatory cell infiltration: • 0: No inflammatory cell infiltration: • 1: A small amount of focal inflammatory cell infiltration; • 2: Scattered diffuse inflammatory cell infiltration: • 3: A large amount of diffuse inflammatory cell infiltration; • 4: A large amount of agglomerated inflammatory cell infiltration.

[4] = Day 0, 12.5 mg/kg topical QD × 5 days
[5] = Day 1, 12.5 mg/kg topical QD × 5 days
[6] = Day 2, 12.5 mg/kg topical QD × 5 days
[7] = Day 3, 12.5 mg/kg topical QD × 5 days
[8] = Day 4, 12.5 mg/kg topical QD × 5 days
[9] = Day 5, 12.5 mg/kg topical QD × 5 days
[10] = Day 6, 12.5 mg/kg topical QD × 5 days
[11] = Day 7, 12.5 mg/kg topical QD × 5 days

In the case of `O=C(O)/C=C/C(=O)O` [Fumaric acid], the “symptoms caused by DSS-induced colitis (diarrhea, hematochezia)” value [1] is reported as “slightly ameliorate the symptoms of diarrhea and hematochezia”, the “DSS-induced body weight loss” value ([1]; vs solvent group) is reported as “showed a trend of alleviating DSS-induced body weight loss” and the “disease activity score (DAI)” value ([1]; vs solvent group, relatively obvious on Day 4 and Day 5) is reported as “slightly improved”.
With `C[C@@H]1CCN(C(=O)CC#N)C[C@@H]1N(C)c1ncnc2[nH]ccc12` [Tofacitinib] the “efficacy on clinical score” value ([2]; 12.5 mg/kg topical QD × 5 days, then BID × 2 days) was “showed efficacy after doubling the dose”, the erythema score [2, 4] was 0 and the scales score [2, 4] was 0. For the same molecule, the thickness score ([2]; Day 0) was 0, the “total score of erythema + scales + thickness” value (“total score” below) ([2]; Day 0) was 0 and the erythema score [2, 5] was 0. For the same molecule, the scales score [2, 5] was 0, the thickness score ([2]; Day 1) was 0.8 and the “total score” value ([2]; Day 1) was 0.8. For the same molecule, the erythema score [2, 6] was 1.4, the scales score [2, 6] was 0 and the thickness score ([2]; Day 2) was 1.4. For the same molecule, the “total score” value ([2]; Day 2) was 2.8, the erythema score [2, 7] was 1.9 and the scales score [2, 7] was 0.4. For the same molecule, the thickness score ([2]; Day 3) was 2.2, the “total score” value ([2]; Day 3) was 4.5 and the erythema score [2, 8] was 2.2. The scales score [2, 8] was 0.7, the thickness score ([2]; Day 4) was 2 and the “total score” value ([2]; Day 4) was 4.9. For the same molecule, the erythema score [2, 9] was 2, the scales score [2, 9] was 1.4 and the thickness score ([2]; Day 5) was 2.2. The “total score” value ([2]; Day 5) was 5.6, the erythema score [2, 10] was 1.8 and the scales score [2, 10] was 1.3. The thickness score ([2]; Day 6) was 2, the “total score” value ([2]; Day 6) was 5.1 and the erythema score [2, 11] was 1.7. The scales score [2, 11] was 1.6, the thickness score ([2]; Day 7) was 1.9 and the “total score” value ([2]; Day 7) was 5.2.
For `COC(=O)c1ccc2c(c1)NC(=O)/C2=C(\Nc1ccc(N(C)C(=O)CN2CCN(C)CC2)cc1)c1ccccc1` [Nintedanib], the “inflammatory cell infiltration of the lesioned skin” value [3] was “visibly reduce” and the subdermal capillary hyperplasia [3] was “visibly reduce”.
